Source: US9593100B2, “Compounds and compositions as protein kinase inhibitors” (Array BioPharma, Inc., priority 2009, dated 2017)

Tests used:
A375 cells = experiment: A375 Cellular Proliferation Assay (A375 CP); format: cell-based; conditions: Homo sapiens, A-375, 48 h; A375-luc cells, 2 days
Protocol: A375-luc cells engineered to express luciferase are plated to 384-well white clear bottom plates as 1,500 cells/50 μl/well in DMEM containing 10% FBS. Compounds of the invention dissolved in 100% DMSO at appropriate concentrations are transferred to the cells by a robotic Pin Tool (100 nl). The cells are incubated for 2 days at […], then 25 μl of BrightGlo™ is added to each well and the plates are read by luminescence. The concentration of each compound for 50% inhibition (IC50) was calculated by non-linear regression using XL Fit data analysis software.

p38α MAP Kinase = experiment: A549 p38α MAP Kinase Bright-Glo Reporter Gene Assay; format: cell-based; conditions: ratio of p38 RGA IC50 to A375 CP IC50
Protocol: A549 cells were stably-transfected with the IL-8 promoter driven reporter, pGL3-IL8-Luc. The cells were plated at 4×10^5/ml into 384-well solid white plates (40 ul/well, 5% CD-FBS, 1×P/S, DMEM) and were incubated overnight (18-20 hours) at 37° C. Test compounds were serially diluted in DMSO, then 50 nl of test solution was added to the incubation (final DMSO concentration of 0.1%). After incubating with test compound for 30 min, cells were stimulated with 1 ng/ml IL-1 beta (10 ul of 5 ng/ml solution per well). Bright-Glo (25 ul/well) was added to measure luciferase expression after 7-8 hours of stimulation.

SW620 cells = experiment: SW620 Cell Viability Assay (Cell Titer Glo); format: cell-based; conditions: 9 serial dilutions between 10 and 0.002 μM, FIG. 1
Protocol: SW620 cells were seeded in 1640 RPMI+10% FBS at a density of 1500 cells per 96-well in black walled, clear bottom tissue culture treated plates. Test compounds were serially diluted in DMSO then added to the cells (final DMSO concentration of 0.1%) and incubated at 37° C. and 5% CO2 for 4 days. To measure cell viability, cell plates were brought to room temperature, culture media was removed, and 200 μl of Cell Titer-Glo reagent (Promega, kit components mixed as per the manufacturer's protocol then diluted 1:2 with growth media) was added to each well. Plates were shaken for 5 minutes, then incubated at room temperature for 5 minutes, and the luminescence was measured (Trilux, Perkin Elmer).

[1] = In Vivo Pharmacokinetics Assay; set-up: species or system mouse; conditions: oral dose of 10 mg/kg
Protocol: (§1) Full pharmacokinetics study: Male Balb/c mice (n=3, body weights 22-25 g) or male Wistar rats (n=3, body weights 250-300 g) were administered the test compound intravenously via the lateral tail vein or orally via gavage. The formulation was typically a 2.5 mg/mL solution of the compound in 75% PEG300 and 25% D5W. Six blood samples of 50 μL each were collected serially for 24 h after dosing. The blood samples were centrifuged to separate the plasma. Plasma samples were analyzed and quantified by LC-MS/MS.
as §1, with “Rapid” for “Full”, “intravenously (IV)” for “intravenously”, “orally (PO)” for “orally”, “The blood samples were centrifuged to separate the plasma.” left out
For both full and rapid pharmacokinetics studies, the following parameters were calculated by non-compartmental regression analysis using Winnonlin 5.0 software (Pharsight, Mountain View, Calif., USA): plasma clearance (Cl), plasma maximum concentration (Cmax), plasma area-under-the-concentration-time-curve (AUC0-inf), and percent oral bioavailability (F %).

Compound: COC(=O)N[C@@H](C)CNc1nccc(-c2cn(C(C)C)nc2-c2cc(NS(C)(=O)=O)c(C)c(OC)c2)n1 [Compound 27]
- IC50 (A375 cells): > 20 µM

Compound: CNc1nccc(-c2cn(C(C)C)nc2-c2cc(Cl)cc(NS(C)(=O)=O)c2F)n1 [Compound 29, N-(5-chloro-2-fluoro-3-{4-[2-(methylamino)pyrimidin-4-yl]-1-(propan-2-yl)-1H-pyrazol-3-yl}phenyl)methanesulfonamide]
- (p38 RGA)/(A375) ratio (p38α MAP Kinase): 220

Compound: COC(=O)NC[C@H](C)Nc1nccc(-c2cn(C(C)C)nc2-c2cc(Cl)cc(NS(C)(=O)=O)c2F)n1 [Compound 32, Methyl N-[(2S)-2-({4-[3-(5-chloro-2-fluoro-3-methanesulfonamidophenyl)-1-(propan-2-yl)-1H-pyrazol-4-yl]pyrimidin-2-yl}amino)propyl]carbamate]
- (p38 RGA)/(A375) ratio (p38α MAP Kinase): 91

Compound: COC(=O)N[C@@H](C)CNc1nccc(-c2cn(C(C)C)nc2-c2cc(Cl)cc(NS(C)(=O)=O)c2F)n1 [Compound 9, Methyl N-[(2S)-1-({4-[3-(5-chloro-2-fluoro-3-methanesulfonamidophenyl)-1-(propan-2-yl)-1H-pyrazol-4-yl]pyrimidin-2-yl}amino)propan-2-yl]carbamate]
- Effect on cellular proliferation (SW620 cells): induction in cellular proliferation
- AUC (total drug exposure) [1]: 30 ± 4 µM·h
